Results reported in patent US10870652B2, “Compounds and methods for modulating bruton's tyrosine kinase” (CORVUS PHARMACEUTICALS, INC., priority 2016, dated 2020).

Tests used:
Type in all cases: biochemical
ITK = target: T1, ITK (Homo sapiens, UniProt Q08881); assay: ITK IC50 kinase inhibition assay
T1 sequence (Q08881 1-620): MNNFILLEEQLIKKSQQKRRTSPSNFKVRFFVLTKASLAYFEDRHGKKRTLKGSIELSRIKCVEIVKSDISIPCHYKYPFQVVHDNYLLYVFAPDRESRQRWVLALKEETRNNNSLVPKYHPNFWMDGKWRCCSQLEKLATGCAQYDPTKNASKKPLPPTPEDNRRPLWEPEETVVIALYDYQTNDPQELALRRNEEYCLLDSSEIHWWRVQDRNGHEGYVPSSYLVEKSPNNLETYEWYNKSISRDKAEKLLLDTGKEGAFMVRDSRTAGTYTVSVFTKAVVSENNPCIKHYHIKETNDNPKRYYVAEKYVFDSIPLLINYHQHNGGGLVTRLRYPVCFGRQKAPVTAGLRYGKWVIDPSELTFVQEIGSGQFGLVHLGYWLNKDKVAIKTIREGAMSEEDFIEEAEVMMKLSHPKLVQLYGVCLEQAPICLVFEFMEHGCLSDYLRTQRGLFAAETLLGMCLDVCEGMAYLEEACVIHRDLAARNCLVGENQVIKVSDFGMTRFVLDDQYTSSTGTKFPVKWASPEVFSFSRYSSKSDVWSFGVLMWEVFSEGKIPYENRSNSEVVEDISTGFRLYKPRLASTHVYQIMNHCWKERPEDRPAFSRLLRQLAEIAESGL

BTK = BTK (Homo sapiens, UniProt Q06187); assay: BTK IC50 kinase inhibition assay
Chain of BTK (Q06187 whole entry): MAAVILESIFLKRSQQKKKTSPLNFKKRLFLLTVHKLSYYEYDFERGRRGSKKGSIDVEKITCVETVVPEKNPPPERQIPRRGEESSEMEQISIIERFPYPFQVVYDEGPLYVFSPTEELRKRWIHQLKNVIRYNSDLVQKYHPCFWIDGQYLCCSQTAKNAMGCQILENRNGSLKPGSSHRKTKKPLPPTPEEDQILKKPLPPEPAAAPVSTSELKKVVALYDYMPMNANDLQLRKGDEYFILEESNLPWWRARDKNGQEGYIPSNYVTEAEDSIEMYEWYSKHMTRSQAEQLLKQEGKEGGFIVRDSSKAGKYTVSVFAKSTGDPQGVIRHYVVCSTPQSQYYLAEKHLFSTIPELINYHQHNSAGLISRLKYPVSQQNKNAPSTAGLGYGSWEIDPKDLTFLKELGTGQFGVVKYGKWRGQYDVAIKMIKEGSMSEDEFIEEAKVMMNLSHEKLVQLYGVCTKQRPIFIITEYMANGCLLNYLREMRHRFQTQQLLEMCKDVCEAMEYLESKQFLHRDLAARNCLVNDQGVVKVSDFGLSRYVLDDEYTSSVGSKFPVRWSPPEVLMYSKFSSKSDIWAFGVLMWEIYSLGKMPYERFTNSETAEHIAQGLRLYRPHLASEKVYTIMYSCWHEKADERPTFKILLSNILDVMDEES

TXK = target: T2, TXK (Homo sapiens, UniProt P42681); assay: TXK IC50 kinase inhibition assay
T2 sequence (P42681 1-527): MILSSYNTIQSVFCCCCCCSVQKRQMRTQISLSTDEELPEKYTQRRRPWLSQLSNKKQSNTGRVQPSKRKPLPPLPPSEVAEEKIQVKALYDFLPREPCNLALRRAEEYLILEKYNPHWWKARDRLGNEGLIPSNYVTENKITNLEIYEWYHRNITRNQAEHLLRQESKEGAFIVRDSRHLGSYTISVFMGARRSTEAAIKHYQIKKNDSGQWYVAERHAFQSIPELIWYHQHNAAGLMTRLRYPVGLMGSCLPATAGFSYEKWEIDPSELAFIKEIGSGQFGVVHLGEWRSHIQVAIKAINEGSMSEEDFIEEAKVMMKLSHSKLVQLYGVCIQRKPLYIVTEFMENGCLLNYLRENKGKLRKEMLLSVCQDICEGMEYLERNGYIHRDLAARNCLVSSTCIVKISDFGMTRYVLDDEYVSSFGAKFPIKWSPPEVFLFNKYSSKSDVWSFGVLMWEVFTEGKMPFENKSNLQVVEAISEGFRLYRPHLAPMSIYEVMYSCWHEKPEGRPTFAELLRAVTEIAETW

JAK3 = target: T3, JAK3 (Homo sapiens, UniProt P52333); assay: JAK3 IC50 kinase inhibition assay
T3 sequence (P52333 1-1124): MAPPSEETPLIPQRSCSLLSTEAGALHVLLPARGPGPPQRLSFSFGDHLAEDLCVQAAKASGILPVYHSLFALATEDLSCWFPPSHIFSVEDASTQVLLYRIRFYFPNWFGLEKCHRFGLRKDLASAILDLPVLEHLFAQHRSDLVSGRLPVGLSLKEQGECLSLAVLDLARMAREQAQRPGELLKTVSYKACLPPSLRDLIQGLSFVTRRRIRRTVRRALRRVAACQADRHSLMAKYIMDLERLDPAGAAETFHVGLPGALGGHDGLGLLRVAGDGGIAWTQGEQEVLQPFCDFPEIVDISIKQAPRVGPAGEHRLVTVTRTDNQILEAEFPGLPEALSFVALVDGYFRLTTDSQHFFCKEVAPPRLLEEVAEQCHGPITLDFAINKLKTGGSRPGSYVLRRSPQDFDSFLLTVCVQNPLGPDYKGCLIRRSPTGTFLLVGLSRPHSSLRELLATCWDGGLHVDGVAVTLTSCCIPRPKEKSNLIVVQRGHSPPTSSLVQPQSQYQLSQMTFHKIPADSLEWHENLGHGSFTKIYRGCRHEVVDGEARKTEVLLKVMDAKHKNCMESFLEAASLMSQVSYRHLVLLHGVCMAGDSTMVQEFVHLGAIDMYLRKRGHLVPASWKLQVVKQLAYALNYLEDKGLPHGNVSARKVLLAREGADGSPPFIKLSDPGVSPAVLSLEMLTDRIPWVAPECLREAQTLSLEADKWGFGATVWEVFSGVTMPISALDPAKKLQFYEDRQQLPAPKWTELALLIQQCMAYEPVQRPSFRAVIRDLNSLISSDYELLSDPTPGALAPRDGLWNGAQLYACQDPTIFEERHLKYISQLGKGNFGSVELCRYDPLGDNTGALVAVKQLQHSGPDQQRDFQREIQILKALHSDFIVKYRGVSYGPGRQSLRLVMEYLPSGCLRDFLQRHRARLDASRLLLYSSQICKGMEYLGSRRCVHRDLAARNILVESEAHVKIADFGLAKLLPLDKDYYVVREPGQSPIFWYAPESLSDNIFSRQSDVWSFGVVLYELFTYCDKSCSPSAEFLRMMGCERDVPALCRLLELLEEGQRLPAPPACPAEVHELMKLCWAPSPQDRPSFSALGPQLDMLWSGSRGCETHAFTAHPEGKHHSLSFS

IC50 (ITK) [nM]	IC50 (BTK) [nM]	IC50 (TXK) [nM]	IC50 (JAK3) [nM]	Structure (SMILES)
> 500	< 100	100 to 500	> 500	C=CC(=O)N1CCC[C@@H](n2nc(-c3ccc(Oc4c(F)cccc4F)cc3)c3cncnc32)C1 [Compound A50, (R)-1-(3-(3-(4-(2,6-difluorophenoxy)phenyl)-1H-pyrazolo[3,4-d]pyrimidin-1-yl)piperidin-1-yl)prop-2-en-1-one]
> 500	< 100	< 100	> 500	C=CC(=O)N1CC[C@H]1Cn1nc(-c2ccc(Oc3ccccc3)cc2)c2cncnc21 [Compound A51, (S)-1-(2-((3-(4-phenoxyphenyl)-1H-pyrazolo[3,4-d]pyrimidin-1-yl)methyl)azetidin-1-yl)prop-2-en-1-one]
> 500	< 100	< 100	> 500	C=CC(=O)N1CCC[C@@]1(C)Cn1nc(-c2ccc(Oc3ccccc3)cc2F)c2cncnc21 [Compound A52, (S)-1-(2-((3-(2-fluoro-4-phenoxyphenyl)-1H-pyrazolo[3,4-d]pyrimidin-1-yl)methyl)-2-methylpyrrolidin-1-yl)prop-2-en-1-one]
> 500	< 100	< 100	> 500	C=CC(=O)N1CC[C@@H]1Cn1nc(-c2ccc(Oc3ccccc3)cc2)c2cncnc21 [Compound A53, (R)-1-(2-((3-(4-phenoxyphenyl)-1H-pyrazolo[3,4-d]pyrimidin-1-yl)methyl)azetidin-1-yl)prop-2-en-1-one]
> 500	> 500	> 500	> 500	C=CC(=O)N1CCC2(CC1)CC(n1nc(-c3ccc(Oc4ccccc4)cc3)c3cncnc31)C2 [Compound A54, 1-(2-(3-(4-phenoxyphenyl)-1H-pyrazolo[3,4-d]pyrimidin-1-yl)-7-azaspiro[3.5]nonan-7-yl)prop-2-en-1-one]
> 500	100 to 500	> 500	> 500	C=CC(=O)N[C@H]1C[C@H](n2nc(-c3ccc(Oc4ccccc4)cc3)c3cncnc32)C1 [Compound A55, N-((1r,3r)-3-(3-(4-phenoxyphenyl)-1H-pyrazolo[3,4-d]pyrimidin-1-yl)cyclobutyl)acrylamide]
> 500	> 500	> 500	> 500	C=CC(=O)N[C@H]1CC[C@H](n2nc(-c3ccc(Oc4ccccc4)cc3)c3cncnc32)CC1 [Compound A56, N-((1r,4r)-4-(3-(4-phenoxyphenyl)-1H-pyrazolo[3,4-d]pyrimidin-1-yl)cyclohexyl)acrylamide]
> 500	> 500	> 500	> 500	CC#CC(=O)N1CCC(Cn2nc(-c3ccc(Oc4ccccc4)cc3)c3cncnc32)CC1 [Compound A57, 1-(4-((3-(4-phenoxyphenyl)-1H-pyrazolo[3,4-d]pyrimidin-1-yl)methyl)piperidin-1-yl)but-2-yn-1-one]
> 500	> 500	> 500	> 500	CC#CC(=O)N1CC(Cn2nc(-c3ccc(Oc4ccccc4)cc3)c3cncnc32)C1 [Compound A58, 1-(3-((3-(4-phenoxyphenyl)-1H-pyrazolo[3,4-d]pyrimidin-1-yl)methyl)azetidin-1-yl)but-2-yn-1-one]
> 500	100 to 500	> 500	> 500	CC#CC(=O)N1CCC(n2nc(-c3ccc(Oc4ccccc4)cc3)c3cncnc32)CC1 [Compound A59, 1-(4-(3-(4-phenoxyphenyl)-1H-pyrazolo[3,4-d]pyrimidin-1-yl)piperidin-1-yl)but-2-yn-1-one]
> 500	< 100	< 100	> 500	CC#CC(=O)N1CC2(CC(n3nc(-c4ccc(Oc5ccccc5)cc4)c4cncnc43)C2)C1 [Compound A60, 1-(6-(3-(4-phenoxyphenyl)-1H-pyrazolo[3,4-d]pyrimidin-1-yl)-2-azaspiro[3.3]heptan-2-yl)but-2-yn-1-one]
> 500	> 500	< 100	> 500	CC#CC(=O)Nc1ccccc1Cn1nc(-c2ccc(Oc3ccccc3)cc2)c2cncnc21 [Compound A61, N-(2-((3-(4-phenoxyphenyl)-1H-pyrazolo[3,4-d]pyrimidin-1-yl)methyl)phenyl)but-2-ynamide]
> 500	100 to 500	100 to 500	> 500	C=C(F)C(=O)N1CCC[C@@H](n2nc(-c3ccc(Oc4ccccc4)cc3)c3cncnc32)C1 [Compound A62, (R)-2-fluoro-1-(3-(3-(4-phenoxyphenyl)-1H-pyrazolo[3,4-d]pyrimidin-1-yl)piperidin-1-yl)prop-2-en-1-one]
> 500	100 to 500	> 500	> 500	CC#CC(=O)N1CC[C@@H](Cn2nc(-c3ccc(Oc4ccccc4)cc3)c3cncnc32)C1 [Compound A63, (R)-1-(3-((3-(4-phenoxyphenyl)-1H-pyrazolo[3,4-d]pyrimidin-1-yl)methyl)pyrrolidin-1-yl)but-2-yn-1-one]
> 500	< 100	100 to 500	> 500	CC#CC(=O)N1CC[C@H](Cn2nc(-c3ccc(Oc4ccccc4)cc3)c3cncnc32)C1 [Compound A64, (S)-1-(3-((3-(4-phenoxyphenyl)-1H-pyrazolo[3,4-d]pyrimidin-1-yl)methyl)pyrrolidin-1-yl)but-2-yn-1-one]
> 500	100 to 500	> 500	> 500	CC#CC(=O)N1CCC[C@@H]1Cn1nc(-c2ccc(Oc3ccccc3)cc2)c2cncnc21 [Compound A65, (R)-1-(2-((3-(4-phenoxyphenyl)-1H-pyrazolo[3,4-d]pyrimidin-1-yl)methyl)pyrrolidin-1-yl)but-2-yn-1-one]
> 500	100 to 500	> 500	> 500	CC#CC(=O)N1CC[C@H]1Cn1nc(-c2ccc(Oc3ccccc3)cc2)c2cncnc21 [Compound A66, (S)-1-(2-((3-(4-phenoxyphenyl)-1H-pyrazolo[3,4-d]pyrimidin-1-yl)methyl)azetidin-1-yl)but-2-yn-1-one]
> 500	100 to 500	> 500	> 500	CC#CC(=O)N1CC[C@@H]1Cn1nc(-c2ccc(Oc3ccccc3)cc2)c2cncnc21 [Compound A67, (R)-1-(2-((3-(4-phenoxyphenyl)-1H-pyrazolo[3,4-d]pyrimidin-1-yl)methyl)azetidin-1-yl)but-2-yn-1-one]
